Assay results: patent publication US7238723B2, “Indole derivatives” (Pfizer Inc., priority 2003, dated 2007)
Where a name gives a salt, the structure may show the parent alone.

Legend:
[1] = on further processing; cited from earlier work
[2] = 4 weeks at 40° C. and 90% relative humidity; cited from earlier work
[3] = Storage stability of the drug substance, HPLC analysis; type: physicochemical; settings: double polyethylene bags inside a fibreboard drum
Method: • 1) Eletriptan hydrobromide monohydrate was stored in double polyethylene bags inside a fibreboard drum under the following conditions: • 25° C./60% RH for 9 months • 30° C./60% RH for 9 months • 40° C./75% RH for 6 months • (RH=relative humidity)

[4] = Moisture sorption by Dynamic Vapour Sorption (DVS); type: physicochemical; settings: 30° C.
Method: The moisture sorption of eletriptan hydrobromide monohydrate was determined using a Dynamic Vapour Sorption (DVS) Automated Sorption Analyser Model DVS-1 instrument manufactured by Surface Measurements Systems Ltd., UK.
Approximately 25 mg of eletriptan hydrobromide monohydrate was accurately weighed into a sample pan. This was exposed to humidities in the range of from 0 to 90% RH. The analysis was carried out in detail in the range of from 0 to 15% RH, using 15% RH steps in the range of from 15 to 90% RH. The analysis temperature was 30° C. with a nitrogen flow rate of 200 cm^3min^−1.
Once the monohydrate has formed there is very little additional moisture sorbed and within the range 10 to 90% RH less than 0.3% w/w of water is sorbed.

Row | Compound | stability of the solid form [1] | water absorbed on standing [2] | degradation on storage (HPLC) ([3]; 25° C./60% RH for 9 months) | degradation on storage (HPLC) ([3]; 30° C./60% RH for 9 months) | degradation on storage (HPLC) ([3]; 40° C./75% RH for 6 months) | hygroscopicity ([4]; 0 to 90% RH) | hydrate state ([4]; above 6% RH) | water lost (water of the monohydrate) ([4]; at 0% RH) | water sorbed ([4]; within the range 10 to 90% RH)
1 | Br.CN1CCC[C@@H]1Cc1c[nH]c2ccc(CCS(=O)(=O)c3ccccc3)cc12 [anhydrous eletriptan hydrobromide] | unstable and to undergo polymorphic conversion to the alpha-form | ≤ 1.23 % by weight | – | – | – | – | – | – | –
2 | CN1CCC[C@@H]1Cc1c[nH]c2ccc(CCS(=O)(=O)c3ccccc3)cc12 [eletriptan hydrobromide monohydrate] | – | – | no degradation had occurred | no degradation had occurred | no degradation had occurred | essentially non-hygroscopic | remains as a monohydrate | 3.8 % w/w | less than 0.3 % w/w
